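GI50: concentration for 50% inhibition of growth. TGI: total growth inhibition.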
Columns and labels:
Test in all cases: growth of human tumour cells (NCI), 384-well format
NCI-H23 lung = system: NCI-H23 lung
NCI-H322M lung = system: NCI-H322M lung
NCI-H460 NSCLC = system: NCI-H460 NSCLC
NCI-H522 lung = system: NCI-H522 lung
NCI/ADR-RES ovarian = system: NCI/ADR-RES ovarian
OVCAR-4 ovarian = system: OVCAR-4 ovarian
OVCAR-5 ovarian = system: OVCAR-5 ovarian
OVCAR-8 ovarian = system: OVCAR-8 ovarian
PC-3 prostate = system: PC-3 prostate
RPMI-8226 leukemia = system: RPMI-8226 leukemia
RXF 393 renal = system: RXF 393 renal
SF-268 CNS = system: SF-268 CNS
SF-295 CNS = system: SF-295 CNS
SF-539 CNS = system: SF-539 CNS
SK-MEL-28 melanoma = system: SK-MEL-28 melanoma
SK-MEL-5 melanoma = system: SK-MEL-5 melanoma
SK-OV-3 ovarian = system: SK-OV-3 ovarian
SN12C renal = system: SN12C renal
SNB-19 CNS = system: SNB-19 CNS
SNB-75 CNS = system: SNB-75 CNS
SW-620 colon = system: SW-620 colon
T-47D breast = system: T-47D breast
TK-10 renal = system: TK-10 renal
U251 glioblastoma = system: U251 glioblastoma
UACC-257 melanoma = system: UACC-257 melanoma
UACC-62 melanoma = system: UACC-62 melanoma
UO-31 renal = system: UO-31 renal

Compound `CCn1cc(-c2ccnc3[nH]c(-c4cccc(CN(C)C)c4)cc23)c(-c2ccc(NC(=O)N(C)C)cc2)n1` has a TGI (NCI-H23 lung) of 2290 nM, a GI50 (NCI-H322M lung) of 3810 nM and a TGI (NCI-H322M lung) of 15600 nM. For the same compound, the GI50 (NCI-H460 NSCLC) was less than 10 nM, the TGI (NCI-H460 NSCLC) was 1340 nM and the GI50 (NCI-H522 lung) was 115 nM. The TGI (NCI-H522 lung) was 1540 nM, the GI50 (NCI/ADR-RES ovarian) was 17600 nM and the TGI (NCI/ADR-RES ovarian) was 42400 nM. It also gave a GI50 (OVCAR-4 ovarian) of 2260 nM, a TGI (OVCAR-4 ovarian) of 13900 nM and a GI50 (OVCAR-5 ovarian) of 1680 nM. For the same compound, the TGI (OVCAR-5 ovarian) was 4910 nM, the GI50 (OVCAR-8 ovarian) was 1620 nM and the TGI (OVCAR-8 ovarian) was 7510 nM. The GI50 (PC-3 prostate) was 1680 nM, the TGI (PC-3 prostate) was 7380 nM and the GI50 (RPMI-8226 leukemia) was less than 10 nM. It also gave a TGI (RPMI-8226 leukemia) of 1430 nM, a GI50 (RXF 393 renal) of 45.4 nM and a TGI (RXF 393 renal) of 2740 nM. For the same compound, the GI50 (SF-268 CNS) was less than 10 nM, the TGI (SF-268 CNS) was 192 nM and the GI50 (SF-295 CNS) was 1910 nM. It also gave a TGI (SF-295 CNS) of 10000 nM, a GI50 (SF-539 CNS) of 327 nM and a TGI (SF-539 CNS) of 2040 nM. The GI50 (SK-MEL-28 melanoma) was 1700 nM, the TGI (SK-MEL-28 melanoma) was 4760 nM and the GI50 (SK-MEL-5 melanoma) was 1340 nM. It also gave a TGI (SK-MEL-5 melanoma) of 2890 nM, a GI50 (SK-OV-3 ovarian) of 1010 nM and a TGI (SK-OV-3 ovarian) of 3410 nM. For the same compound, the GI50 (SN12C renal) was 344 nM, the TGI (SN12C renal) was 3800 nM and the GI50 (SNB-19 CNS) was 2410 nM. The TGI (SNB-19 CNS) was 14200 nM, the GI50 (SNB-75 CNS) was 483 nM and the TGI (SNB-75 CNS) was 2220 nM. The GI50 (SW-620 colon) was 750 nM, the TGI (SW-620 colon) was 2350 nM and the GI50 (T-47D breast) was 1420 nM. It also gave a TGI (T-47D breast) of 9450 nM, a GI50 (TK-10 renal) of 2610 nM and a TGI (TK-10 renal) of 11600 nM. The GI50 (U251 glioblastoma) was 1350 nM, the TGI (U251 glioblastoma) was 2830 nM and the GI50 (UACC-257 melanoma) was 1360 nM. The TGI (UACC-257 melanoma) was 2710 nM, the GI50 (UACC-62 melanoma) was 755 nM and the TGI (UACC-62 melanoma) was 4340 nM. The GI50 (UO-31 renal) was 2670 nM and the TGI (UO-31 renal) was 12000 nM.

Reference: PubChem BioAssay (NCI)
